Measured values published in ChEMBL document CHEMBL3045476, “Prediction of antiproliferative activity of some flavone derivatives: QSAR study” (2009).

Tested on: SK-HEP1
Experiment: Antiproliferative activity against Homo sapiens (human) SKHEP1 cells
Type: functional
Conditions: SK-HEP1, read-out: pGI50 (converted)

Row | GI50 [µM] | SMILES
1 | 6.9 | O=c1c(OC/C(=N/O)c2ccc(F)cc2)c(-c2ccccc2)oc2ccccc12
2 | 7.29 | C/C(COc1ccc2c(=O)c(-c3ccccc3)coc2c1)=N\O
3 | 8.2 | CO/N=C(/COc1ccc2oc(-c3ccccc3)cc(=O)c2c1)c1ccccc1
4 | 2 | CO/N=C(/COc1ccc2oc(-c3ccccc3)cc(=O)c2c1)c1ccc(OC)cc1
5 | 1.9 | C/C(COc1ccc2oc(-c3ccccc3)cc(=O)c2c1)=N\O
6 | 9.2 | CO/N=C(\C)COc1c(-c2ccccc2)oc2ccccc2c1=O
7 | 3.3 | CO/N=C(/COc1ccc2c(=O)cc(-c3ccccc3)oc2c1)c1ccc(F)cc1
8 | 2 | O=c1cc(-c2ccccc2)oc2cc(OC/C(=N/O)c3ccccc3)ccc12
9 | 2.3 | O=c1cc(-c2ccccc2)oc2cc(OC/C(=N/O)c3ccc(F)cc3)ccc12
10 | 7.21 | O=c1c(OC/C(=N/O)c2ccccc2)c(-c2ccccc2)oc2ccccc12
11 | 6.39 | O=c1c(-c2ccccc2)coc2cc(OC/C(=N/O)c3ccccc3)ccc12
12 | 5.59 | COc1ccc(/C(COc2ccc3c(=O)cc(-c4ccccc4)oc3c2)=N\O)cc1
13 | 2.6 | C/C(COc1c(-c2ccccc2)oc2ccccc2c1=O)=N\O
14 | 7.11 | CO/N=C(/COc1c(-c2ccccc2)oc2ccccc2c1=O)c1ccccc1
15 | 6.39 | CO/N=C(\C)COc1ccc2c(=O)c(-c3ccccc3)coc2c1
16 | 7.39 | CO/N=C(/COc1ccc2c(=O)c(-c3ccccc3)coc2c1)c1ccccc1
17 | 5.5 | COc1ccc(/C(COc2ccc3c(=O)c(-c4ccccc4)coc3c2)=N\O)cc1
18 | 6.6 | O=c1c(-c2ccccc2)coc2cc(OC/C(=N/O)c3ccc(F)cc3)ccc12
19 | 7.9 | CO/N=C(/COc1ccc2oc(-c3ccccc3)cc(=O)c2c1)c1ccc(F)cc1
20 | 13 | CO/N=C(/COc1c(-c2ccccc2)oc2ccccc2c1=O)c1ccc(F)cc1
21 | 2.7 | COc1ccc(/C(COc2c(-c3ccccc3)oc3ccccc3c2=O)=N\O)cc1
22 | 2 | CO/N=C(\C)COc1ccc2c(=O)cc(-c3ccccc3)oc2c1
23 | 4.79 | CO/N=C(/COc1ccc2c(=O)cc(-c3ccccc3)oc2c1)c1ccc(OC)cc1
24 | 5.29 | CO/N=C(/COc1ccc2c(=O)c(-c3ccccc3)coc2c1)c1ccc(OC)cc1
25 | 2.8 | C/C(COc1ccc2c(=O)cc(-c3ccccc3)oc2c1)=N\O
26 | 6.09 | CO/N=C(/COc1ccc2c(=O)c(-c3ccccc3)coc2c1)c1ccc(F)cc1
27 | 11 | CO/N=C(/COc1c(-c2ccccc2)oc2ccccc2c1=O)c1ccc(OC)cc1
28 | 2 | CO/N=C(/COc1ccc2c(=O)cc(-c3ccccc3)oc2c1)c1ccccc1
29 | 2.8 | O=c1cc(-c2ccccc2)oc2ccc(OC/C(=N/O)c3ccc(F)cc3)cc12
